{"source": "patent US5840712A", "about": "“Water soluble vitamin B12 receptor modulating agents and methods related thereto” (Receptagen Corporation, priority 1995, dated 1998)", "origin": "cited, not measured here", "biological_target": "avidin (Gallus gallus, UniProt P02701)", "sequence (P02701 25-152)": "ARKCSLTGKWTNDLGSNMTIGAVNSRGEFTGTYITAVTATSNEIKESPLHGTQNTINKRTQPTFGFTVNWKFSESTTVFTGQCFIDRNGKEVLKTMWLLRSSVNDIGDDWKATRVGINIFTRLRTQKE", "data": [{"compound": "O=C(O)CCCC[C@@H]1SC[C@@H]2NC(=O)N[C@@H]21", "note": "[biotin]", "values": [{"measurement": "specific binding affinity of biotin for avidin (Ka)", "value": "10^15"}]}]}
